One series concerns the target T1, mu-opioid receptor (MOR) (Rattus norvegicus, UniProt P33535).
T1 construct: Rat cortices were homogenized using 50 mM Tris, pH 7.4, and centrifuged at 16,500 rpm for 10 min; from tissue; host or cells: rat cortex membranes
Nature of the series: MOR radioligand competition binding assay ([3H]-DAMGO). The following applies: Mu screening results. In short, it runs like this:
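Rat cortical membranes in 50 mM Tris pH 7.4 with 2 mg/mL bovine serum were incubated with 2 nM [3H]-DAMGO and test compound. Bound radioligand was separated by filtration on BSA-soaked GF/B filters and counted by scintillation. Values are mean ± SD of two experiments, each in duplicate.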

Series [1] addresses T2, kappa-opioid receptor (KOR) (Cavia porcellus, UniProt P41144).
T2 construct: Guinea pig cortices and cerebella were homogenized using 50 mM Tris, pH 7.4; from tissue; host or cells: guinea pig cortex and cerebellum membranes
Nature of the series: KOR radioligand competition binding assay ([3H]U69,593). Further details: species or system guinea pig. The following applies: Kappa screening results. In short, it runs like this:
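Guinea pig cortex and cerebellum homogenates in 50 mM Tris pH 7.4 with 10 mM MgCl2, 2 nM [3H]U69,593, 2 h at 25 °C. Unlabeled U50,488 gave the standard curve and nonspecific binding. Filtration on BSA-soaked GF/B filters, scintillation counting; two replicates, repeated twice, mean ± SD.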
For orientation: In a radioligand displacement assay an active substance lowers the binding of a labelled ligand.

For series [2], the target named is T3, delta-opioid receptor (DOR) (Rattus norvegicus, UniProt P33533).
T3 construct: Rat cortices were homogenized using 50 mM Tris, pH 7.4, 10 mM MgCl2-6H2O, 200 µM PMSF; from tissue; host or cells: rat cortex membranes
Nature of the series: DOR radioligand competition binding assay ([3H]-DPDPE). The following applies: Delta screening results. The gist of the method:
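Competition binding on rat cortical homogenate in 50 mM Tris pH 7.4, 10 mM MgCl2, 200 µM PMSF with 2 nM [3H]-DPDPE, 2.5 h at 25 °C. Unlabeled DPDPE defined nonspecific binding; filtration onto BSA-soaked GF/B filters, scintillation counting. Mean ± SD of two experiments in duplicate.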

Series [3] is described as follows: LC-MS/MS analysis of blood and perfused brain after i.v. administration. Type of series: in vivo, mouse. The method, then: To assess the stability of 1968-22 in plasma and evaluate CNS penetration, blood and perfused brains were collected from mice 5, 15, and 30 min after (i.v.) administration of the bis-cyclic guanidine (10 mg/kg, i.v.).
Figure 5 LC-MS/MS analysis of 1968-22 ([…].) in blood and brain samples isolated from treated mice over 30 min. Control mice received vehicle (10% Ethanol/10%Tween-80/80% 0.9% saline) and were harvested immediately. Points are mean AUC ± SEM for the summed ion extracted chromatographs of 1968-22 from three mice/time points.

The test system of series [4] is C57BL/6J mice. As to the kind of experiment: Ambulation (locomotor activity) in CLAMS/Oxymax system. The note with it: i.c.v. The series is classed as in vivo, mouse. The method, then:
Respiration rates (in breaths per minute) and animal locomotive activity (as ambulations) were assessed using the Oxymax/CLAMS system (Columbus Instruments, Columbus, OH), as described previously. Mice were habituated to their individual sealed housing chambers for 60 min before testing. Mice were administered 1968-22 (0.3–100 nmol, i.c.v.), morphine (100 nmol, i.c.v.), or vehicle, as indicated, and five min later confined to the CLAMS testing chambers. Pressure monitoring within the sealed chambers measured frequency of respiration. Infrared beams located in the floor measured locomotion as number of beam breaks. Respiration and locomotive data were averaged over 20 min periods for 120 min post-injection of the test compound. Data are presented as % vehicle response ± SEM, ambulation or breaths per minute.

Series [5] relates to C57BL/6J mice. Nature of the series: Acute antinociceptive tolerance determination. The note with it: i.c.v.
In series [6] the test system is C57BL/6J mice. As to the kind of experiment: Opioid antagonist activity of 1968-22 against opioid agonists (tail-withdrawal assay).
[7] abbreviates: experiment 1, unit inferred, read-out: Ki (Exp 1).
The mark [8] stands for this setting: experiment 2, unit inferred, read-out: Ki (Exp 2).
The mark [9] stands for this setting: mean of two experiments, read-out: Ki.

Read-outs that look alike come from different tables or passages of the source.

Turning to `Cc1cc(O)cc(C)c1C[C@H]1CN([C@@H](Cc2c(C)cc(O)cc2C)CN2C(=N)NC[C@@H]2C)C(=N)N1` [1968-22], the Ki at mu-opioid receptor (MOR) (setting [7]) came to 7.68 nM; on mu-opioid receptor (MOR) (setting [8]), 7.31 nM; on mu-opioid receptor (MOR) (mean of Exp 1 and Exp 2, unit inferred, read-out: MEAN (Ki)), 7.49 nM; on mu-opioid receptor (MOR) (setting [9]), 7 nM; in series [1] (setting [7]) it was 195 nM; in series [1] (setting [8]), 242 nM. The Ki stood at 218 nM in series [1] (setting [9]); 260 nM in series [2] (first Ki column, unit not printed (apparently M), read-out: Ki (first column)); 265 nM in series [2] (mean of both Ki, unit inferred, read-out: MEAN (Ki)); 265 nM in series [2] (setting [9]); 271 nM in series [2] (second Ki column, unit not printed (apparently M), read-out: Ki (second column)). The “time detectable / stable in blood after i.v. administration” value in series [3] (10 mg/kg) is listed as “at least 30 min”. Besides, the “levels in perfused brain by LC-MS/MS” value in series [3] (10 mg/kg, 5, 15 and 30 min) is given as “negligible levels”. Further, in series [3] (10 mg/kg, within 5 min of administration), the “detection in serum by LC-MS/MS” value is “readily detected”. Further, the “effect on ambulation vs vehicle” value in the series with C57BL/6J mice [4] (0.3 nmol, 0–20 min) is listed as “brief reductions in ambulations”; with C57BL/6J mice [4] (100 nmol), “elevated ambulations”; in the series on C57BL/6J mice [4] (1 or 10 nmol) it was “without significant effect”. The “acute antinociceptive tolerance (in words)” value with C57BL/6J mice [5] is listed as “significant tolerance”. The “ED50 (95% C.I.) of second dose at 8 h” value in the series with C57BL/6J mice [5] (after ED50 pretreatment at 0 h) is recorded as 0.18 (0.09–0.32) nmol. For the same compound, in the series with C57BL/6J mice [6] (2.5 h pretreatment, 0.3 nmol i.c.v., SNC-80 100 nmol, i.c.v.), the “antagonism of SNC-80-induced antinociception” value is “significantly antagonized”. Further, the “antagonism of morphine-induced antinociception” value in the series with C57BL/6J mice [6] (2.5 h pretreatment, 0.3 nmol i.c.v., morphine 10 mg/kg, i.p.) is “did not have an effect”. In the series on C57BL/6J mice [6] (i.c.v. pretreatment, SNC-80 100 nmol, i.c.v.), the “pretreatment dose giving maximal antagonism of SNC-80” value is listed as 3 nmol.

The values above are taken from paper PMC9455983 (International Journal of Molecular Sciences, 2022).
